Source: patent US8716287B2, “Pharmaceutical compounds” (Sentinel Oncology Limited, priority 2010, dated 2014)
Where two headings read alike, the source gives them in different places.

Key:
Chk-1 kinase = Chk-1 kinase (Homo sapiens (Human), UniProt O14757); test: Chk-1 kinase inhibiting activity (33P-ATP filter assay, CHKtide substrate); format: biochemical
SW620 = test: Potentiation assay with DNA damaging agents in SW620 cells; format: cell-based; settings: SW620 human colon adenocarcinoma
Experimental: (§1) The following protocol was used:
(§2) (a) HT29 cells were seeded in 96-well plates at a concentration of 3000 cells per well and allowed to adhere overnight prior to addition of compound or vehicle control.
(§3) (b) SN38 was prepared from a 10 mM DMSO stock to give a final concentration range of 1 μM, 300 nM, 100 nM, 30 nM, 10 nM, 3 nM, 1 nM, and vehicle control.
(§4) (c) Test compounds were prepared from 10 mM DMSO stocks to typically give a final concentration range of 3 μM, 1 μM, 0.3 μM. 0.1 μM, 0.03 μM and vehicle control. The final DMSO content was 0.4%.
(§5) (d) Test compounds were incubated with the cells for 72 h at 37° C. 5% CO2 in a humidified atmosphere.
(§6) (e) Alamar blue 10% (v/v) was then added and incubated for a further 6 h, and fluorescent product detected using the BMG FLUOstar plate reader.
(§7) (f) Data were analysed using a 4-parameter logistic equation in GraphPad Prism.
(§8) Sensitisation is determined by the enhancement in IC50 of SN38 by the addition of the Chk-1 kinase inhibitor. In the protocol described above, the IC50 for SN-38 is determined the presence of varying doses of the Chk-1 inhibitor. The fold shift represents a decrease in IC50 for SN-38 at a dose of Chk-1 inhibitor that has no effect by itself.
(§9) Using the general protocol set out in Example 67, the compound of Example 4 was tested in potentiation assays against a variety of cell lines in combination with several different DNA damaging anti-cancer agents.

Calu 6 = test: Potentiation assay with DNA damaging agents in Calu 6 cells; format: cell-based; settings: Calu 6 human lung adenocarcinoma, Example 4 at 8 μM
Experimental: as §1, §2, §3, §4, §5, §6, §7, §8, §9

HT29 cells = test: Sensitisation of HT29 cells to SN38 (Alamar blue cell growth); format: cell-based, human; settings: HT29 cells; test compound at 1.25 μM
HT29 = test: Potentiation assay with DNA damaging agents in HT29 cells; format: cell-based; settings: HT29 human colon cancer; gemcitabine; Example 4 at 4 μM
Experimental: as §1, §2, §3, §4, §5, §6, §7
as §8, with “itself. […]” for “itself.”

Sequence of Chk-1 kinase (O14757 whole entry): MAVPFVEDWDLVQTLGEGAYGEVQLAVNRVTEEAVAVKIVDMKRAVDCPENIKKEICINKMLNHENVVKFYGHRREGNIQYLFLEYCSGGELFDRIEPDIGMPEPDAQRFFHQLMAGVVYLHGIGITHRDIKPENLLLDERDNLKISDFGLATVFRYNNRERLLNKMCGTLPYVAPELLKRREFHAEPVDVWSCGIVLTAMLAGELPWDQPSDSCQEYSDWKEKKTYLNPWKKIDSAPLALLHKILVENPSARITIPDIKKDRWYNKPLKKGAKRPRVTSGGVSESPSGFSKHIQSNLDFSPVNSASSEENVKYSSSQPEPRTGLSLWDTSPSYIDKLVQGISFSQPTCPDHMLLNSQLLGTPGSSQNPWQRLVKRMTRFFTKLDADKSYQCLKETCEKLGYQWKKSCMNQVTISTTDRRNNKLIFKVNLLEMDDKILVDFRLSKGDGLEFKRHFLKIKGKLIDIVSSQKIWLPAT

N#Cc1cnc(NC(=O)Nc2ccc(CCNCc3ccc(F)cc3)c(Cl)c2)cn1 [Example 4, 1-{3-Chloro-4-[2-(4-fluoro-benzylamino)-ethyl]-phenyl}-3-(5-cyano-pyrazin-2-yl)-urea]
IC50 (Chk-1 kinase; Chk-1 kinase, Table 3, read-out: IC50): 0.015 µM | IC50 (Chk-1 kinase; ranges given, read-out: IC50 values against Chk-1 kinase): 0.01 to 0.1 µM | Potentiation factor (SW620; SN-38, Example 4 at 4 μM): 16.4 | Potentiation factor (SW620; etoposide, Example 4 at 1 μM): 2.6 | Potentiation factor (SW620; gemcitabine, Example 4 at 2 μM): 2.5 | Potentiation factor (Calu 6; SN-38): 3.7 | Potentiation factor (Calu 6; etoposide): 7.6 | Potentiation factor (Calu 6; gemcitabine): 6.1 | fold shift in the IC50 value of SN38 (HT29 cells): three | Potentiation factor (HT29): 18
